In article PMC10569036:

Assay: shake flask on a mixture of 185; loss from the water phase only; LC-Orbitrap peak areas
Details: room

Structure (SMILES)	log partition 1-octanol / HPLC water, unbuffered, traces of methanol / DMSO [log10]	log partition butyl acetate / HPLC water, unbuffered, traces of methanol / DMSO [log10]	log partition chloroform / HPLC water, unbuffered, traces of methanol / DMSO [log10]	log partition cyclohexane / HPLC water, unbuffered, traces of methanol / DMSO [log10]	log partition dichloromethane / HPLC water, unbuffered, traces of methanol / DMSO [log10]	log partition n-hexane / HPLC water, unbuffered, traces of methanol / DMSO [log10]	log partition n-octane / HPLC water, unbuffered, traces of methanol / DMSO [log10]	log partition n-undecane / HPLC water, unbuffered, traces of methanol / DMSO [log10]	log partition oleylalcohol / HPLC water, unbuffered, traces of methanol / DMSO [log10]	log partition toluene / HPLC water, unbuffered, traces of methanol / DMSO [log10]
COc1ccccc1/C=C/C=O	1.387	0.7851	0.6596	-0.3102	0.6345	0.495	-0.2565	-0.1964	-0.5567	0.2589
CC(=O)/C=C/c1ccccc1	0.1948	-0.04199	-0.02485	-0.3829	-0.0685	-0.3815	-0.655	-0.7862	-0.0887	-0.2533
O=C1C=CC(=O)N1c1ccc(Cc2ccc(N3C(=O)C=CC3=O)cc2)cc1	-0.1715	-0.4086	-0.4673	-0.523	0.07258	-0.4156	-0.5042	-0.6476	-0.3131	0.01296
CCCCc1ccc(O)cc1	-0.1262	-0.005316	-0.1217	-0.5302	0.2438	-0.849	-0.6939	-0.8247	-0.3004	-0.3739
O=C(O)c1ccccc1C(c1ccc(O)cc1)c1ccc(O)cc1	-0.6855	0.116	-0.6877	-1.286	-0.3134	-0.9598	-1.232	-1.337	-0.1989	-0.7201
CCCCC(O)(Cn1cncn1)c1ccc(Cl)cc1Cl (centres unmarked)	3.35	5.299	1.307	3.351	4.823	2.027	2.104	2.029	3.139	4.525
CN1COCN(Cc2cnc(Cl)s2)C1=N[N+](=O)[O-]	-0.1952	0.2434	1.267	-1.812	1.869	-1.862	-1.749	-1.056	-0.5161	-0.2331
CCCCCCCCCCCCN1CCCCCC1=O	-0.1202	-1.099	0.3816	-0.5564	-0.008559	-0.8813	-0.4901	-0.9092	-0.7875	-0.5083
CCCCNC(=S)NCCCC	1.103	0.744	0.6525	-0.1972	0.6427	-0.2041	0.07134	0.1833	0.9527	0.4176
CC(C)Nc1nc(N)nc(Cl)n1	1.201	1.711	1.238	-0.6663	1.437	-0.7941	-0.5719	-1.115	1.559	0.5402
CCCCCCC(O)CCCCCCCCCCC(=O)OC (centres unmarked)	-0.3995	-0.5958	-0.2735	-0.4754	-1.47	-1.341	-1.53	-1.718	-0.7143	-1.19
O=C(OC1CCCCC1)c1ccccc1C(=O)OC1CCCCC1	0.6596	0.2225	0.1245	-0.9365	0.1411	-0.6432	-1.045	-0.8058	-0.79	-1.067
C=C(C)C(=O)OCCOCCOC(=O)C(=C)C	0.2475	-0.01795	0.3491	-0.1638	0.4156	-0.1437	-0.3242	-0.3846	0.1237	-0.03291
NC(=O)N/N=C/c1ccc([N+](=O)[O-])o1	1.712	0.5487	0.2279	–	0.3361	–	–	–	0.1785	-0.2455
O=C(O)CCN(C1(C(=O)NO)CCCC1)S(=O)(=O)c1ccc(Oc2ccc(F)cc2)cc1	-0.5893	1.182	0.09364	-1.331	0.4348	-1.472	-1.686	0.1413	0.5204	-0.3191
